Test results as given in PubChem BioAssay (NCI).
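GI50 is the concentration that inhibits growth by half. The concentration for full growth arrest is given as TGI.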

Legend:
Assay in all cases: NCI tumour cell line growth inhibition, 384-well format
[1] = tested on: K-562 leukemia
[2] = tested on: COLO 205 colon
[3] = tested on: SK-OV-3 ovarian
[4] = tested on: M14 melanoma
[5] = tested on: 786-0 renal
[6] = tested on: HCT-116 colon
[7] = tested on: UACC-257 melanoma
[8] = tested on: CAKI-1 renal
[9] = tested on: NCI-H226 lung
[10] = tested on: NCI/ADR-RES ovarian
[11] = tested on: HOP-92 NSCLC
[12] = tested on: MDA-MB-468 breast
[13] = tested on: NCI-H460 NSCLC
[14] = tested on: OVCAR-4 ovarian
[15] = tested on: A549 NSCLC
[16] = tested on: UO-31 renal
[17] = tested on: MDA-MB-231 breast
[18] = tested on: SF-295 CNS
[19] = tested on: HT29 colon
[20] = tested on: MDA-MB-435 melanoma
[21] = tested on: SN12C renal
[22] = tested on: BT-549 breast
[23] = tested on: HCC-2998 colon
[24] = tested on: SW-620 colon
[25] = tested on: MALME-3M melanoma
[26] = tested on: LOX IMVI melanoma
[27] = tested on: HL-60(TB) leukemia
[28] = tested on: PC-3 prostate
[29] = tested on: KM12 colon
[30] = tested on: SK-MEL-2 melanoma
[31] = tested on: A498 renal
[32] = tested on: DU-145 prostate
[33] = tested on: RPMI-8226 leukemia
[34] = tested on: OVCAR-8 ovarian
[35] = tested on: HOP-62 NSCLC
[36] = tested on: U251 glioblastoma
[37] = tested on: SF-268 CNS
[38] = tested on: MOLT-4 leukemia
[39] = tested on: SK-MEL-5 melanoma
[40] = tested on: NCI-H522 lung
[41] = tested on: SK-MEL-28 melanoma
[42] = tested on: ACHN renal
[43] = tested on: EKVX NSCLC
[44] = tested on: MCF7 breast
[45] = tested on: T-47D breast
[46] = tested on: UACC-62 melanoma
[47] = tested on: SNB-19 CNS

CNCc1ccccc1-c1csc([C@@H](C)Nc2nc(C)nc3cc(OC)c(OC)cc23)c1
GI50 [1]: 64 nM | TGI [1]: 723 nM | GI50 [2]: 1590 nM | TGI [2]: 2940 nM | GI50 [3]: 1310 nM | TGI [3]: 2580 nM | GI50 [4]: 1560 nM | TGI [4]: 2900 nM | GI50 [5]: 1240 nM | TGI [5]: 2500 nM | GI50 [6]: 1290 nM | TGI [6]: 2560 nM | GI50 [7]: 275 nM | TGI [7]: 810 nM | GI50 [8]: 1050 nM | TGI [8]: 2220 nM | GI50 [9]: 1250 nM | TGI [9]: 2580 nM | GI50 [10]: 1620 nM | TGI [10]: 2990 nM | GI50 [11]: 171 nM | TGI [11]: 1290 nM | GI50 [12]: 287 nM | TGI [12]: 1560 nM | GI50 [13]: 1580 nM | TGI [13]: 2930 nM | GI50 [14]: 1140 nM | TGI [14]: 2380 nM | GI50 [15]: 1670 nM | TGI [15]: 3040 nM | GI50 [16]: 1520 nM | TGI [16]: 2850 nM | GI50 [17]: 1720 nM | TGI [17]: 3100 nM | GI50 [18]: 1700 nM | TGI [18]: 3070 nM | GI50 [19]: 1560 nM | TGI [19]: 2910 nM | GI50 [20]: 1570 nM | TGI [20]: 2910 nM | GI50 [21]: 1030 nM | TGI [21]: 2200 nM | GI50 [22]: 1250 nM | TGI [22]: 2500 nM | GI50 [23]: 240 nM | TGI [23]: 1070 nM | GI50 [24]: 1360 nM | TGI [24]: 2640 nM | GI50 [25]: 1560 nM | TGI [25]: 2900 nM | GI50 [26]: 1650 nM | TGI [26]: 3010 nM | GI50 [27]: 1080 nM | TGI [27]: 2270 nM | GI50 [28]: 1530 nM | TGI [28]: 2970 nM | GI50 [29]: 914 nM | TGI [29]: 2140 nM | GI50 [30]: 1320 nM | TGI [30]: 2590 nM | GI50 [31]: 1030 nM | TGI [31]: 2190 nM | GI50 [32]: 1710 nM | TGI [32]: 3200 nM | GI50 [33]: 643 nM | TGI [33]: 1980 nM | GI50 [34]: 1500 nM | TGI [34]: 2830 nM | GI50 [35]: 1480 nM | TGI [35]: 2800 nM | GI50 [36]: 1440 nM | TGI [36]: 2750 nM | GI50 [37]: 1610 nM | TGI [37]: 2960 nM | GI50 [38]: 1180 nM | TGI [38]: 2400 nM | GI50 [39]: 1150 nM | TGI [39]: 2370 nM | GI50 [40]: 1160 nM | TGI [40]: 2390 nM | GI50 [41]: 1510 nM | TGI [41]: 2840 nM | GI50 [42]: 1510 nM | TGI [42]: 2840 nM | GI50 [43]: 1100 nM | TGI [43]: 2320 nM | GI50 [44]: 1290 nM | TGI [44]: 2570 nM | GI50 [45]: 1130 nM | TGI [45]: 2340 nM | GI50 [46]: 1700 nM | TGI [46]: 3080 nM | GI50 [47]: 1450 nM | TGI [47]: 2770 nM
